In the SangsterLogP compilation:

Row | Compound | logP
1 | c1ccc2sc(SCCc3cnc[nH]3)nc2c1 | 3.12
2 | c1ccc2sc(NCCc3c[nH]cn3)nc2c1 | 2.36
3 | c1ccc(-c2cnc(SCCc3cnc[nH]3)[nH]2)cc1 | 2.45
4 | c1ccc2sc(SCCCc3cnc[nH]3)nc2c1 | 3.24
5 | c1ccc(-c2c[nH]c(CCCc3cnc[nH]3)n2)cc1 | 2.5
6 | c1ccc2sc(NCCCc3cnc[nH]3)nc2c1 | 2.71
7 | S=C(NC1CCCCC1)N1CCC(c2cnc[nH]2)CC1 | 2.4
8 | c1ncc(CCCc2nc(C3CCCCC3)c[nH]2)[nH]1 | 2.94
9 | Clc1ccc2[nH]c(NCCCc3cnc[nH]3)nc2c1 | 2.49
10 | O=S(=O)(Cc1ccc(Cl)cc1)NCCCCc1cnc[nH]1 | 2.23
11 | Clc1ccc(Cc2noc(CCc3cnc[nH]3)n2)cc1 | 2.51
